In assay [1] the target is T1, human 5HT1A-serotonergic receptor (Homo sapiens, UniProt P08908).
T1 construct: expressed in transfected cells; cell membranes
T1 sequence (P08908 1-422): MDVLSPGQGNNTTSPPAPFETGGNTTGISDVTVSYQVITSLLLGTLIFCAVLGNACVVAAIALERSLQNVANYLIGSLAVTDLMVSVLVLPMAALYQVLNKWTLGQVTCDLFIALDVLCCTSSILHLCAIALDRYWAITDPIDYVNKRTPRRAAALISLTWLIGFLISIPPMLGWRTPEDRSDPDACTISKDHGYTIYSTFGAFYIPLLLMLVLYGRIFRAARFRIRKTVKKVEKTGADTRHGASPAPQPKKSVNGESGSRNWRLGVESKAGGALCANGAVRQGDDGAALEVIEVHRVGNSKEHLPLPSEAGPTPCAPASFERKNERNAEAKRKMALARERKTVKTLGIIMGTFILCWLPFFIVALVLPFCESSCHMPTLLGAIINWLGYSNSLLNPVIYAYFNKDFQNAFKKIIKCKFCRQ
The assay is described as follows: Radioligand binding to recombinant 5-HT1A receptors. As to conditions: 1 nM [3H]8-OH-DPAT, membranes of HeLa cells transfected with human 5HT1A receptor; Ki from IC50 by Cheng & Prusoff; read-out: Binding affinity for 5HT1A receptors, Ki. Here is the method:
Genomic clone G-21 coding for the human 5HT1A-serotonergic receptor was stably transfected in a human cell line (HeLa). HeLa cells were grown as monolayers in Dulbecco's modified Eagle medium (DMEM), containing 10% foetal bovine serum, gentamicin ([…]) and 5% carbon dioxide, at 37° C. The cells were detached from the growth flask at 95% confluence by a cell scraper and were lysed in cold 5 mM Tris and 5 mM EDTA buffer (pH 7.4). The homogenates were centrifuged at 40000×g×20 minutes and the pellets were resuspended in a small volume of cold 5 mM Tris and 5 mM EDTA buffer (pH 7.4) and immediately frozen and stored at −70° C. until use. On the day of experiment, the cell membranes were resuspended in incubation buffer: 50 mM Tris HCl (pH 7.4), 2.5 mM MgCl2, […] (Fargin et al., Nature 335, 358-360, 1988). […] Non-specific binding was determined in the presence of 10 μM 5-HT. […]
The affinity of the tested compounds was evaluated as inhibition of specific binding of the radioligand to 5-HT1A receptors (IC50) by using the non-linear curve-fitting program Allfit (De Lean et al., Am. J. Physiol. 235, E97-E102 (1978). The IC50 value was converted to an affinity constant (Ki) by the equation of Cheng & Prusoff (Cheng Y. C., Prusoff W. H., Biochem. Pharmacol. 22, 3099-3108 (1973)).

The test system of assay [2] is rhythmic bladder-voiding contractions. The assay is described as follows: Effects on rhythmic bladder-voiding contractions induced by bladder filling in anaesthetised rats. Format: in vivo, rat. The conditions noted are these: intravenous administration. How it is done:
Female Sprague-Dawley rats weighing 225-275 g (Crl: CDo Br, Charles River Italia) were used. The animals were housed with free access to food and water and maintained on a forced 12-hour alternating light-dark cycle at 22-24° C. for at least one week, except during the experiment. The activity on rhythmic bladder voiding contractions was evaluated according to the method of Dray (Dray J., Pharmacol. Methods, 13:157, 1985), with some modifications as in Guarneri (Guarneri, Pharmacol. Res. 27:173, 1993). Briefly, the rats were anaesthetised by subcutaneous injection of 1.25 g/kg (5 ml/kg) urethane, after which the urinary bladder was catheterised via the urethra using PE 50 polyethylene tubing filled with physiological saline. […]
From the cystometrogram, the number of contractions recorded 15 minutes before (basal values) and after treatment, as well as the mean amplitude of these contractions (mean height of the peaks in mmHg), was evaluated.
Since most compounds produced an effect that was relatively rapid in onset and led to a complete cessation of bladder contractions, bioactivity was conveniently estimated by measuring the duration of bladder quiescence (i.e. the length of the time during which no contractions occurred). The number of tested animals showing a reduction in the number of contractions higher than 30% of that observed in the basal period was recorded too. […]

Assay [3] has as its system bladder volume capacity (BVC) and micturition pressure (MP). In words: Effect on cystometric parameters in conscious rats after oral administration. As to conditions: 3 mg/kg p.o., 1-5 h after treatment, versus vehicle. Format: in vivo, rat. How it is done:
Male Sprague-Dawley rats [Crl: CD° (SD) BR] of 300-400 g supplied by Charles River Italia were used. The animals were housed with free access to food and water and maintained on a forced 12-hour-light/12-hour-dark cycle at 22-24° C. of temperature, except during the experiment. To quantify urodynamic parameters in conscious rats, cystometrographic studies were performed according to the procedure previously reported (Guarneri et al., Pharmacol. Res. 24: 175, 1991).
Briefly, the rats were anaesthetised by intraperitoneal administration of 3 ml/kg of Equithensin solution (pentobarbital 30 mg/kg and chloral hydrate 125 mg/kg) and placed in a supine position. An approximately-10-mm-long midline incision was made in the shaved and cleaned abdominal wall. The urinary bladder was gently freed from adhering tissues, emptied and then cannulated via an incision in the bladder body, using a polyethylene cannula (0.58-mm internal diameter, 0.96-mm external diameter) which was permanently sutured with silk thread. The cannula was exteriorised through a subcutaneous tunnel in the retroscapular area, where it was connected to a plastic adapter in order to avoid the risk of removal by the animal. For drug testing, the rats were utilised one day after implantation.
On the day of the experiment, the rats were placed in modified Bollman cages, i.e. restraining cages that were large enough to permit the rats to adopt a normal crouched posture, but narrow enough to prevent turning around. […] The intraluminal-pressure signal during infusion of saline into the bladder was continuously recorded on a polygraph (Rectigraph-8K San-ei with BM614/2 amplifier from Biomedica Mangoni) and, from the cystometrogram, two urodynamic parameters were evaluated: bladder volume capacity (BVC) and micturition pressure (MP). […] Basal BVC and MP values were evaluated as mean of the values observed in the cystometrograms recorded in an initial period of 30-60 minutes. […] The bladder infusion restarted and changes in BVC and MP were evaluated from the mean values obtained in the cystometrograms observed during 1, 2, 3, 4 and 5 hours after treatment. […]
All data were expressed as mean±standard error. Time-course data were analysed by S.A.S./STAT software, version 6.12. The difference between vehicle and active-treatment effect was evaluated by: General Linear Model Procedure—Repeated Measures Analysis of Variance: Univariate test of Hypotheses for within Subject Effects—Analysis of Variance of Contrast Variables. […]

pKi: −log10 of the molar value.

“1-(2-Ethylbutanoyl-1,2,3,4-tetrahydroquinoline-2-ylmethyl)-4-(4-indolyl)-piperazine [Example 24A]”: the negative logarithm of the Ki (pKi) – broadly, the Ki on a negative log10 scale, so that one unit is a factor of ten – in assay [1] was 7.89.

For the compound `CC(C)Oc1cc(Cl)ccc1N1CCN(CC2CCc3ccccc3N2C(=O)C2CCCCC2)CC1` (centres unmarked) [Example 60A], the negative logarithm of the Ki (pKi) in assay [1] is 8.00.

As to `CCN(CC)CC#CCOC(=O)C(O)(c1ccccc1)C1CCCCC1` (centres unmarked) [Oxybutynin, oxybutynin], in assay [2], the “cessation of bladder contractions (in words)” value is “does not cause cessation of bladder contractions” and the “effect on amplitude of the contractions (in words)” value is listed as “only decreased the amplitude of the contractions in a dose-related manner”. In assay [3], the “bladder volume capacity (BVC) change (in words)” value is “slight, not-significant increase of BVC” and the “micturition pressure (MP) change (in words)” value was “greatly reduced the micturition pressure values”.

In the case of `O=C(C1CCCCC1)N1c2ccccc2CCC1CN1CCN(c2cccc3[nH]ccc23)CC1` (racemic) [Example 1, 1-(1-Cyclohexanecarbonyl-1,2,3,4-tetrahydroquinoline-2-ylmethyl)-4-(4-indolyl)piperazine], in assay [3], the “bladder volume capacity (BVC) change (in words)” value was “effective in increasing the bladder volume capacity” and the “micturition pressure (MP) change (in words)” value is on record as “without significant effects on micturition pressure”.

These data come from patent US20030181446A1, “Novel N-acylated heterocycles” (Recordati S.A., priority 2001, published 2003).
